Results from ChEMBL document CHEMBL5154749 (Eur J Med Chem, 2022).
Calls of active or inactive are those of the source. The rule behind the calls is not given here.

Legend:
[1] = tested on: LoVo; assay: Induction of apoptosis in human LoVo cells deficient in ATM assessed as necrotic cells at 1 uM measured after 24 hrs by Annexin V-FITC/Propidium iodide staining based flow cytometry analysis (reference value: 0.84%); type: functional
[2] = tested on: LoVo; assay: Antitumor activity against human LoVo cells xenografted in NOD/SCID mouse assessed as tumor growth inhibition at 50 mg/kg, po BID for 30 days measured every 2 to 3 days; type: functional; conditions: 720 h, time 30 day, read-out: TGI
[3] = tested on: LoVo; assay: Induction of apoptosis in human LoVo cells deficient in ATM assessed as necrotic cells at 3 uM measured after 24 hrs by Annexin V-FITC/Propidium iodide staining based flow cytometry analysis (reference value: 0.84%); type: functional
[4] = Cmax in Sprague-Dawley rat at 10 mg/kg, po measured at 0.083 to 24 hrs by LC-MS/MS method; type: ADME, organism-based; design: time 0.083-24 hrs, dose 10 mg/kg, route po; conditions: in vivo
[5] = target: Serine-protein kinase ATM (Homo sapiens) (UniProt Q13315); assay: Activation of ATM signaling in human HT-29 cells proficient in ATM at 1 uM measured after 3 days by immunofluorescence assay; type: cell-based; conditions: filed as activator, time 3.0 day
[6] = tested on: HT-29; assay: Antiproliferative activity against human HT-29 cells assessed as reduction in cell viability incubated for 72 hrs in presence of AZD1390 by MTT assay; type: functional, cell-based; conditions: HT-29, 72 h
[7] = tested on: HT-29; assay: Induction of apoptosis in human HT-29 cells assessed as early apoptotic cells at 0.3 uM measured after 48 hrs in presence of AZD1390 by Annexin V-FITC/Propidium iodide staining based flow cytometry analysis (reference value: 3.81%); type: functional
[8] = target: Serine/threonine-protein kinase B-raf (Homo sapiens, UniProt P15056); assay: Inhibition of human recombinant B-raf (416 to end residue) using myelin-Bas as substrate incubated for 40 mins in presence of ATP by scintillation counting method
Serine/threonine-protein kinase B-raf, sequence (P15056 whole entry): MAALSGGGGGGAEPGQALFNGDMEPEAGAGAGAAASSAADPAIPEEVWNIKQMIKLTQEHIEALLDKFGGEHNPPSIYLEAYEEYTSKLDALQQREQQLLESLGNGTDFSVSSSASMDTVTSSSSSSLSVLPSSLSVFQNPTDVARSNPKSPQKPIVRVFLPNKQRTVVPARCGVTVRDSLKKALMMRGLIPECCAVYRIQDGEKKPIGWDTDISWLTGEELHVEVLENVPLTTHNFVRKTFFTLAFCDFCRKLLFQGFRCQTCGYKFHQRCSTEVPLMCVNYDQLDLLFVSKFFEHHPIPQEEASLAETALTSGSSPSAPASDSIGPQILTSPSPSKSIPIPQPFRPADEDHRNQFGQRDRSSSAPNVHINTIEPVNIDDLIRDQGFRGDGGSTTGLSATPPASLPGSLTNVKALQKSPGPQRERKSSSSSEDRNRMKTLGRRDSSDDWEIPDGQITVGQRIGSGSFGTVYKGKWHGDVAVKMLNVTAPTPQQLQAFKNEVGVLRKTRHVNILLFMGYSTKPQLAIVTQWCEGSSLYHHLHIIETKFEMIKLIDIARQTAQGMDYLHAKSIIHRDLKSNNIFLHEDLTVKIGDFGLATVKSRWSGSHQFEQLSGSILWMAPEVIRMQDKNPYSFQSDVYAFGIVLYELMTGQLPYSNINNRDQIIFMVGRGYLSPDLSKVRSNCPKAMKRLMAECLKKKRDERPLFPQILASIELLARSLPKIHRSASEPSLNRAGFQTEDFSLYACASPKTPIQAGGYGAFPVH

[9] = AUC (0 to infinity) in Sprague-Dawley rat at 10 mg/kg, po measured at 0.083 to 24 hrs by LC-MS/MS method; type: ADME, organism-based; design: time lower 0.083 hrs, dose 10 mg/kg, time upper 24 hrs, route po; conditions: in vivo
[10] = Tmax in Sprague-Dawley rat at 10 mg/kg, po measured at 0.083 to 24 hrs by LC-MS/MS method; type: ADME, organism-based; conditions: in vivo, time 0.083-24 hrs
[11] = tested on: LoVo; assay: Antiproliferative activity against ATM-deficient human LoVo cells assessed as reduction in cell viability incubated for 72 hrs by MTT assay; type: functional, cell-based; conditions: dose 0.001-100 µM, DDE = dose-dependent effect
[12] = tested on: HT-29; assay: Induction of apoptosis in human HT-29 cells assessed as early apoptotic cells at 3 uM measured after 48 hrs in presence of AZD1390 by Annexin V-FITC/Propidium iodide staining based flow cytometry analysis (reference value: 3.81%); type: functional
[13] = target: T1, Serine/threonine-protein kinase ATR (Homo sapiens, UniProt Q13535); assay: Inhibition of ATR signalling in ATM-deficient human LoVo cells assessed as change in expression of Chk1 at up to 3 uM incubated for 1 hr followed by hydroxyurea addition measured after 4 hrs by Western blot analysis; type: cell-based; conditions: time 5.0 hrs
T1 sequence (Q13535 whole entry, looked up): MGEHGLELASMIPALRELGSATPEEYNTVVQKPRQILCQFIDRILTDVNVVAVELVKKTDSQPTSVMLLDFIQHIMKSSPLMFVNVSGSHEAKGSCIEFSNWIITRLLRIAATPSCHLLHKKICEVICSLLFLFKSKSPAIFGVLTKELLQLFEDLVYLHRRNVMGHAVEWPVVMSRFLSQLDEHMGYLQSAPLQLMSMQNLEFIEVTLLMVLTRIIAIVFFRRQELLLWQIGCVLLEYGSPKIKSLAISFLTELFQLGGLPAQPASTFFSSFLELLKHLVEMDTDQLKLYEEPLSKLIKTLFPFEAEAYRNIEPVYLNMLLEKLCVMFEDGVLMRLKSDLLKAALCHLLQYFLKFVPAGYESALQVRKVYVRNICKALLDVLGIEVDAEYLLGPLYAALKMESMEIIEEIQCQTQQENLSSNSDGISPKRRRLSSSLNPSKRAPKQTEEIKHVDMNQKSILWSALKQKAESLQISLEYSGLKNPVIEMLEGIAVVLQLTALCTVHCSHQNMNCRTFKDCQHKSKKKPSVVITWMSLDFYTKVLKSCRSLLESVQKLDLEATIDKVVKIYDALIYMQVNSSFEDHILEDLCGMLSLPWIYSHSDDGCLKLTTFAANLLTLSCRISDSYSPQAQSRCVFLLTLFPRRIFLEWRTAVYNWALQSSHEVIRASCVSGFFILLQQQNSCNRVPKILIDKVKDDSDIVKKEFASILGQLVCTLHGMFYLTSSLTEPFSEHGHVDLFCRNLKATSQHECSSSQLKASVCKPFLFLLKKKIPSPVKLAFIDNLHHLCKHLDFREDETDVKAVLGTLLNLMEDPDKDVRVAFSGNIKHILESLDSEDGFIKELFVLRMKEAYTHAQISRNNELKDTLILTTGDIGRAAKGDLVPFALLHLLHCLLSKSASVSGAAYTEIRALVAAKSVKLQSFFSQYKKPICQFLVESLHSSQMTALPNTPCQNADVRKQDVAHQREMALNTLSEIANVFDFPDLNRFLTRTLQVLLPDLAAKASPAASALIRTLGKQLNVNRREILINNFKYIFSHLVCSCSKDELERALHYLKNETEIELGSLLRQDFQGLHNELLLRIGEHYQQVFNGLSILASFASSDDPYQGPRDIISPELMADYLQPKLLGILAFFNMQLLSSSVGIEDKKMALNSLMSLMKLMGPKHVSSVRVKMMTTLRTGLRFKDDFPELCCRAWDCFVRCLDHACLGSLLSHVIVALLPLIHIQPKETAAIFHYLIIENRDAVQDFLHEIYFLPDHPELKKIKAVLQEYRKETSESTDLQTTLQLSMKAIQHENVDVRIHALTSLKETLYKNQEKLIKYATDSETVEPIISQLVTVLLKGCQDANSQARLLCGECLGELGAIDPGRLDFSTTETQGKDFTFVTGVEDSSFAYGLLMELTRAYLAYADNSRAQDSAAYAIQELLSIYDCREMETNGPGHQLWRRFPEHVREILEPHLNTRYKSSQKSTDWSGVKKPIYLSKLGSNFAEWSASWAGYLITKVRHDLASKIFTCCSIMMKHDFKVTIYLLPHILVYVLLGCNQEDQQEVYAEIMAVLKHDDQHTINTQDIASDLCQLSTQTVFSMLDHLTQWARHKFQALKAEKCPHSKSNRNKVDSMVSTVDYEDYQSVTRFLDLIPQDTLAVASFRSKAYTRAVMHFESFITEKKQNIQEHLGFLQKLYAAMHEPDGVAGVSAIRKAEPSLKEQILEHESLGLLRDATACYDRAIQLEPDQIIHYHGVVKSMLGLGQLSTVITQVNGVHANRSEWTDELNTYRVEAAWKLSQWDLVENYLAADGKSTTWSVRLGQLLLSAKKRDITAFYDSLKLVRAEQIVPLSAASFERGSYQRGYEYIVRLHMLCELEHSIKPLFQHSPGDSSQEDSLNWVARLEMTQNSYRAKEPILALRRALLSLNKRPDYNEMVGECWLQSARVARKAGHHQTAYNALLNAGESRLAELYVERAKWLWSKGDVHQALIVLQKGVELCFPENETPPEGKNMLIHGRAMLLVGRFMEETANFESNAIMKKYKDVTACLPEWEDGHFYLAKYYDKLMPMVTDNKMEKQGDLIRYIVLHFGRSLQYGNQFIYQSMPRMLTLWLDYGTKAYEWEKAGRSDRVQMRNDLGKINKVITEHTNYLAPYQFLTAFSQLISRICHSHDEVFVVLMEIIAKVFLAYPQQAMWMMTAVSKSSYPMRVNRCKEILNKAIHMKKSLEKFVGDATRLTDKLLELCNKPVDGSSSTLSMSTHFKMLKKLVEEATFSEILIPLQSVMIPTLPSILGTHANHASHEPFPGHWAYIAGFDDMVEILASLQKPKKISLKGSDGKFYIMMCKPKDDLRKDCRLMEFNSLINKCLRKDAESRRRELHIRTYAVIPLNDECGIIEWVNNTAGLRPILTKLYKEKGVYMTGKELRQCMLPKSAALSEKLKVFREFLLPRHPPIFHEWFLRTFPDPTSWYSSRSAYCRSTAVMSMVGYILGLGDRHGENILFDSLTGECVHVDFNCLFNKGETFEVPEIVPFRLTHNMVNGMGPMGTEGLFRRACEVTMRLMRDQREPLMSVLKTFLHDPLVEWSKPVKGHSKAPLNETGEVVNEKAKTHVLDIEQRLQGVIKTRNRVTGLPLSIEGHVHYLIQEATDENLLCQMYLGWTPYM

[14] = Toxicity in NOD/SCID mouse xenografted with human LoVo cells assessed as damage in heart at 50 to 100 mg/kg, po administered bid for 30 days measured after 2 hrs post last dose by H and E staining method; type: organism-based; conditions: in vivo, 720 h, dose 50-100 mg/kg, time 30 day
[15] = tested on: MCF7; assay: Antiproliferative activity against ATM proficient human MCF7 cells assessed as reduction in cell viability incubated for 72 hrs by MTT assay; type: functional, cell-based; conditions: dose 0.001-100 µM, DDE = dose-dependent effect
[16] = tested on: A549; assay: Antiproliferative activity against ATM proficient human A549 cells assessed as reduction in cell viability incubated for 72 hrs by MTT assay; type: functional, cell-based; conditions: dose 0.001-100 µM, DDE = dose-dependent effect
[17] = tested on: LoVo; assay: Induction of apoptosis in human LoVo cells deficient in ATM assessed as late apoptotic cells at 1 uM measured after 24 hrs by Annexin V-FITC/Propidium iodide staining based flow cytometry analysis (reference value: 3.32%); type: functional
[18] = tested on: LoVo; assay: Induction of apoptosis in human LoVo cells deficient in ATM assessed as early apoptotic cells at 1 uM measured after 24 hrs by Annexin V-FITC/Propidium iodide staining based flow cytometry analysis (reference value: 4.20%); type: functional
[19] = tested on: HT-29; assay: Induction of apoptosis in human HT-29 cells assessed as viable cells at 1 uM measured after 48 hrs in presence of AZD1390 by Annexin V-FITC/Propidium iodide staining based flow cytometry analysis (reference value: 95.33%); type: functional; conditions: read-out: Activity
[20] = target: T1, Serine/threonine-protein kinase ATR; assay: In vivo inhibition of ATR in human LoVo cells xenografted in NOD/SCID mouse assessed as inhibition of ATR phosphorylation at 50 to 100 mg/kg, po administered twice a day for 30 days by Western blot analysis; conditions: dose 50-100 mg/kg, time 30.0 day
[21] = tested on: HT-29; assay: Cytotoxicity against ATM proficient human HT-29 cells assessed as reduction in cell viability incubated for 72 hrs by MTT assay; type: functional, cell-based; conditions: dose 0.001-100 µM, DDE = dose-dependent effect
[22] = tested on: HT-29; assay: Induction of apoptosis in human HT-29 cells assessed as viable cells at 1 uM measured after 48 hrs by Annexin V-FITC/Propidium iodide staining based flow cytometry analysis (reference value: 97.01%); type: functional; conditions: read-out: Activity
[23] = tested on: HT-29; assay: Induction of apoptosis in human HT-29 cells assessed as necrotic cells at 0.3 uM measured after 48 hrs by Annexin V-FITC/Propidium iodide staining based flow cytometry analysis (reference value: 0.73%); type: functional
[24] = tested on: HT-29; assay: Induction of apoptosis in human HT-29 cells assessed as viable cells at 3 uM measured after 48 hrs in presence of AZD1390 by Annexin V-FITC/Propidium iodide staining based flow cytometry analysis (reference value: 95.33%); type: functional; conditions: read-out: Activity
[25] = tested on: HT-29; assay: Induction of DNA damage in human HT-29 cells proficient in ATM at 1 uM measured after 3 days in presence of AZD1390 by immunofluorescence assay; type: functional, cell-based; conditions: time 3.0 day
[26] = tested on: HT-29; assay: Induction of apoptosis in human HT-29 cells assessed as late apoptotic cells at 3 uM measured after 48 hrs in presence of AZD1390 by Annexin V-FITC/Propidium iodide staining based flow cytometry analysis (reference value: 0.63%); type: functional
[27] = tested on: LoVo; assay: Antimigratory activity in human LoVo cells assessed as suppression of cell migration measured at up to 1 uM by wound healing assay; type: functional, cell-based; conditions: time <= 48.0 hrs, TDE = time-dependent effect
[28] = tested on: HT-29; assay: Induction of apoptosis in human HT-29 cells assessed as viable cells at 3 uM measured after 48 hrs by Annexin V-FITC/Propidium iodide staining based flow cytometry analysis (reference value: 97.01%); type: functional; conditions: read-out: Activity
[29] = tested on: LoVo; assay: Induction of apoptosis in human LoVo cells deficient in ATM assessed as viable cells at 0.3 uM measured after 24 hrs by Annexin V-FITC/Propidium iodide staining based flow cytometry analysis (reference value: 91.64%); type: functional; conditions: read-out: Activity
[30] = Volume of distribution at steady state in Sprague-Dawley rat at 5 mg/kg, iv measured at 0.083 to 24 hrs by LC-MS/MS method; type: ADME, organism-based; conditions: in vivo, time 0.083-24 hrs, read-out: Vdss

Cmax [4]: 895 ng/mL
Activity [5]: Active
IC50 [6]: 439 nM
IC50 [8]: 1770 nM
AUC(0-inf) [9]: 2720 ng·h/mL
Tmax [10]: 1.67 h
inhibition [13]: Active
Activity [20]: Active
Vd [30]: 2.03 L/kg
SMILES: C[C@@H]1COCCN1c1nc(-c2cccc3[nH]ccc23)nc2ccc(-c3ccnn3C)cc12
Activity [1]: 2.39%
inhibition in vivo at 50 mg/kg [2]: 50%
Activity [3]: 3.01%
Activity [7]: 7.23%
Activity [11]: Dde
Activity [12]: 15.88%
Activity [14]: Non-Toxic
Activity [15]: Dde
Activity [16]: Dde
Activity [17]: 20.93%
Activity [18]: 28.91%
viability at 1 µM [19]: 80.9%
Activity [21]: Dde
viability at 1 µM [22]: 94.7%
Activity [23]: 1.65%
viability at 3 µM [24]: 58%
Activity [25]: Active
Activity [26]: 20.78%
Activity [27]: Tde
viability at 3 µM [28]: 93.1%
viability at 0.3 µM [29]: 55.9%
